According to patent US10654856B2, “Method for preparing pyrrolo[3,2-D]pyrimidine compound, and intermediates thereof” (CHIA TAI TIANQING PHARMACEUTICAL GROUP CO., LTD., priority 2016, dated 2020):

Biological target: Toll-like receptor 7 (Homo sapiens (Human), UniProt Q9NYK1)
Experiment: Toll-like receptor 7 in vitro receptor binding activity screen (HEK-blue hTLR7 cell, Quanti-Blue alkaline phosphatase readout)
Type: cell-based
Settings: 24 h incubation, read-out: TLR7 EC50
Procedure: Toll-Like Receptor 7 and Toll-Like Receptor 8 In Vitro Receptor Binding Activity Screen
HEK-blue hTLR7 cell and HEK-blue hTLR8 cell (available from InvivoGen)
heat inactivated fetal bovine serum
Anti Mycoplasma reagent Normocin™
The structures of GS-9620 and R848 used are as follows, wherein the preparation of GS-9620 could be referred to the process disclosed in US20100143301; R848 was commercially available from ABGENT (IMG-2208, specification: 0.5 mg).
1. Preparation of 96-well compound plate:
The compounds were gradient diluted with DMSO in 3-fold using liquid work station POD starting at a concentration of 10 mmol/L and 10 points were diluted (2nd column to 11th column, and each point was duplicated). At 12th column, 1 μL of 5 mg/mL positive compound R848 was added as positive control; and at 1st column, 1 μL of DMSO was added as negative control. Each well contained 1 μL of DMSO.
2. The cells in culture flask were collected and the cell density was diluted to 250,000 cells/mL.
3. 200 μL (50,000 cells/well) of cell suspension was added into prepared compound plate and the final concentration of DMSO in each well was 0.5%.
4. The culture plates containing cells and the compounds were incubated in CO2 incubator for 24 h at 37° C., 5% CO2.
5. After 24 h incubation, 20 μL of supernatant was removed from each well to a 96-well transparent assay plate. To each well of the assay plate was added 180 μL of Quanti-Blue reagent and the plate was incubated in an incubator at 37° C., 5% CO2 for 1 h.
6. After 1 h, the content of alkaline phosphatase in 20 μL of supernatant was determined using Microplate Reader OD650.
7. EC50 of each compound was obtained with Prism software.

Toll-like receptor 7, sequence (Q9NYK1 27-1049): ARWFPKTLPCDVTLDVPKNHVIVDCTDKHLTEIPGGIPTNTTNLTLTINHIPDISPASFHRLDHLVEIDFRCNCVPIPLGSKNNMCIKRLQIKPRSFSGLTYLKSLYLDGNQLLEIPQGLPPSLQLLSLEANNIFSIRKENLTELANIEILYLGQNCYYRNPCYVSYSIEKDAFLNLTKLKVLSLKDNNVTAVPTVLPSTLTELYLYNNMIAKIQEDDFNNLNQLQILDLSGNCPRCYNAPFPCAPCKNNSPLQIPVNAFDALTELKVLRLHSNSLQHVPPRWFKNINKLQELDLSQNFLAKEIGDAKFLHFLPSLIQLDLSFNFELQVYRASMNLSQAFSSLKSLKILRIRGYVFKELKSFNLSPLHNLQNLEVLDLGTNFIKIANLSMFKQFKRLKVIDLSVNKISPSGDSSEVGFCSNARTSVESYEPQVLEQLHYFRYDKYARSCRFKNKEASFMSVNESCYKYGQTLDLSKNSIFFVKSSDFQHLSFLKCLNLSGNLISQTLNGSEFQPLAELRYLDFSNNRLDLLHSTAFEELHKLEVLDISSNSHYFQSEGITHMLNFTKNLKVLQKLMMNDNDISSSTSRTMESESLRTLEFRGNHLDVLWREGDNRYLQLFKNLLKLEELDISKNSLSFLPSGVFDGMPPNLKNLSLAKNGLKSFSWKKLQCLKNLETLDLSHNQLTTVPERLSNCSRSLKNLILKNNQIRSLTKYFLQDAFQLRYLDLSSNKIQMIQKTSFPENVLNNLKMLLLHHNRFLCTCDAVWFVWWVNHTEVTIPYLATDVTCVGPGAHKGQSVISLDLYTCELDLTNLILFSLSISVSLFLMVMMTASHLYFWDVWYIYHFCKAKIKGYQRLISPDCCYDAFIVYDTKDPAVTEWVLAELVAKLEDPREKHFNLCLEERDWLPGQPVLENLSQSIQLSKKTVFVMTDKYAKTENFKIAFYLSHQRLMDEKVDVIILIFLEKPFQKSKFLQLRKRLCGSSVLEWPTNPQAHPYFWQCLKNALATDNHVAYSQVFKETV

| SMILES | EC50 |
| --- | --- |
| CCCCOc1nc(N)c2[nH]cc(Cc3ccc(CN(CC)CC)cc3)c2n1 [Compound 9] | 100 to 1000 nM |
| CCCCOc1nc(N)c2[nH]cc(Cc3ccc(CN4CCCCC4)cc3)c2n1 [Compound 5] | 100 to 1000 nM |
| CCCCOc1nc(N)c2[nH]cc(Cc3ccc(CN4CCC(F)(F)C4)cc3)c2n1 [Compound 2] | 1000 to 50000 nM |
| CCCCOc1nc(N)c2[nH]cc(Cc3ccc(CN4CCC(F)C4)cc3)c2n1 (stereo not shown) [Compound 3] | 100 to 1000 nM |
| CCCCOc1nc(N)c2[nH]cc(Cc3ccc(CN4CCCC4)cc3)c2n1 [Compound 1, 2-butoxy-7-(4-(pyrrolidin-1-ylmethyl)benzyl)-5H-pyrrolo[3,2-d]pyrimidin-4-amine] | 100 to 1000 nM |
| CCCCOc1nc(N)c2[nH]cc(Cc3ccc(CN4CCC(O)C4)cc3)c2n1 (stereo not shown) [Compound 4] | 100 to 1000 nM |
| CCCCOc1nc(N)c2[nH]cc(Cc3ccc(CN4CCOCC4)cc3)c2n1 [Compound 6] | 1000 to 50000 nM |
| CCCCOc1nc(N)c2[nH]cc(Cc3ccc(CN(C)C)cc3)c2n1 [Compound 8] | 100 to 1000 nM |
| CCCCOc1nc(N)c2[nH]cc(Cc3ccc(CN4CCN(C)CC4)cc3)c2n1 [Compound 7] | 1000 to 50000 nM |

The remaining lines, values ahead:

| EC50 | SMILES |
| --- | --- |
| 100 to 1000 nM | CCCCOc1nc(N)c2[nH]cc(Cc3ccc(CN4CCC4)cc3)c2n1 [Compound 11] |
| 100 to 1000 nM | CCCCOc1nc(N)c2[nH]cc(Cc3ccc(CN4CC(C)OC(C)C4)cc3)c2n1 (stereo not shown) [Compound 14] |
| 100 to 1000 nM | CCCCOc1nc(N)c2[nH]cc(Cc3ccc(CN4CCN(C(C)C)CC4)cc3)c2n1 [Compound 16] |
| 100 to 1000 nM | CCCCOc1nc(N)c2[nH]cc(Cc3ccc(CN4CCC(OC)CC4)cc3)c2n1 [Compound 15] |
| 100 to 1000 nM | CCCCOc1nc(N)c2[nH]cc(Cc3ccc(CN4CC(OC)C4)cc3)c2n1 [Compound 12] |
| 100 to 1000 nM | CCCCOc1nc(N)c2[nH]cc(Cc3ccc(CN(CCC)CCC)cc3)c2n1 [Compound 10] |
| 100 to 1000 nM | CCCCOc1nc(N)c2[nH]cc(Cc3ccc(CN4CCCN(C)CC4)cc3)c2n1 [Compound 13] |
